{
  "source": "paper PMC8359193",
  "about": "“Summary of reference chemicals evaluated by the fish short‐term reproduction assay, OECD TG229, using Japanese Medaka, Oryzias latipes” (Journal of Applied Toxicology, 2021)",
  "key": {"medaka Esr1 (mEsr1)": {"target": "T1, medaka Esr1 (mEsr1) (Oryzias latipes, UniProt P50241)", "T1 construct": "expressed in transfected cells; host or cells: HEK293 (human embryonic kidney cells), transient transfection with FuGENE HD", "T1 sequence (P50241 1-620)": "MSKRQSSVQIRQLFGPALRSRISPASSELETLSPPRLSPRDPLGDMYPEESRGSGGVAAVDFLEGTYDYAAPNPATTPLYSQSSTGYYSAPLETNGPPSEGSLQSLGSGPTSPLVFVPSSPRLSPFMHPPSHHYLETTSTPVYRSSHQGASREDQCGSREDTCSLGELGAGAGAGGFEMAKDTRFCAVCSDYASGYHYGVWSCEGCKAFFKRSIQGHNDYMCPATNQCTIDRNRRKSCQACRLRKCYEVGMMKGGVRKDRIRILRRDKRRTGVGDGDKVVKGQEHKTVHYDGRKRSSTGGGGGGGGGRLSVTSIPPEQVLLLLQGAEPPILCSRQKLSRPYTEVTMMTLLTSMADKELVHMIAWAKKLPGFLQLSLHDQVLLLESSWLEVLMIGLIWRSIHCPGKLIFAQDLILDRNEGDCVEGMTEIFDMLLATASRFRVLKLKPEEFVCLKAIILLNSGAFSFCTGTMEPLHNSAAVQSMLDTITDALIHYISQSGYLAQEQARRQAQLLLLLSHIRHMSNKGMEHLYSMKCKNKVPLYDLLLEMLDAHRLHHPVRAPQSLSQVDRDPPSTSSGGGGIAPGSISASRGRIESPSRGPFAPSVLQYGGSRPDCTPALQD", "assay": "Medaka Esr1 reporter gene assay (RGA), antagonist assay with 1 nM E2, HEK293 cells", "format": "cell-based, Japanese medaka (Oryzias latipes)", "description": "To support interpretation of the biological effects observed in the FSTRA studies, in vitro RGAs using medaka Esr1 (mEsr1) and medaka ARβ (mARβ) were performed for the 16 test chemicals. In the present study, Esr1 and ARβ, which are ancestral subtypes among Esrs and ARs in Japanese medaka, were selected based on the phylogenetical analyses of Esr and AR with each receptor RGAs (Ogino et al., [2016], [2018]; Tohyama et al., [2015]).\nThe mEsr1 RGA consisting of agonist and antagonist assays were performed according to the methods previously reported (Katsu et al., [2010]; Lange et al., [2012]; Miyagawa et al., [2014]). Briefly, human embryonic kidney cells 293 (HEK293), precultured, were seeded in 96‐well plates at 15,000 cells/well with 200 μl of culture medium, phenol‐red‐free Dulbecco's Modified Eagle's medium (ThermoFisher Scientific K.K., Tokyo, Japan) supplemented with 2‐mM L‐glutamine and 10% charcoal/dextran‐treated fetal bovine serum (Hyclone, UT, USA), and then incubated for 24 h in 5% CO2 at 37°C. After the 24‐h incubation, 20 μl of test medium containing 40 ng of medaka Esr1/pcDNA3.1, 80 ng of ERE‐TK‐Luc, and 20 ng of pRL‐TK‐Rlu and 1.2 μL of transfection reagent FuGENE HD (Promega, WI, USA) were added into each well. The assay plates were incubated for another 4 h in order to transfect the three vectors into the HEK293 cells. After the vectors were successfully transfected, in agonist assay, 24 μl of concentrated test chemical solution was applied to the test medium in the plate wells. […] After chemical treatment for 40 h, luciferase activity of the cells was measured, and the promoter activity was calculated as firefly (Photinus pyralis)‐/sea pansy (Renilla reniformis)‐luciferase activity in each well. The luciferase activities were quantified by a chemiluminescence assay with Dual‐Luciferase Reporter Assay System (Promega) in accordance with the manufacturer's instructions, and luminescence intensity of firefly and sea pansy luciferin was measured using a luminometer, TriStar LB941 (Berthold Technology, Oak Ridge, TN, USA).\n(§1) Effect concentrations, that is, EC50 (a half maximal effective concentration) in the agonist assay and IC50 (a half maximal inhibitory concentration) in the antagonist assay, were estimated by nonlinear curve fitting (e.g., three parameters logistic regression curve) using GraphPad Prism (GraphPad Software Inc., La Jolla, CA, USA)."}, "[1]": {"system": "Japanese medaka (Oryzias latipes)", "assay": "Fish short-term reproduction assay (FSTRA, OECD TG229), 21-day flow-through exposure", "details": "for GSI Female / HSI Female / Length Female / Weight Female / GSI Male / HSI Male / Length Male / Weight Male: at completion of exposure; for Fertility rate (%) / Mortality (%) Female / Mortality (%) Male / Number of fertilized eggs / Number of total eggs / SSC Female / SSC Male / VTG (ng/mg of liver) Female / VTG (ng/mg of liver) Male: 21 days", "description": "The experimental studies on the FSTRA for the 16 chemicals were conducted in two laboratories in Japan, the National Institute for Environmental Studies (NIES, Lab‐1) and the Institute of Environmental Ecology, IDEA Consultants Inc. (Lab‐2), in accordance with OECD TG229 (OECD, [2012a]) (Table 1).\nThe NIES‐R strain of Japanese medaka (O. latipes), one of the orange‐red varieties, was used in all the 16 chemical studies. For the studies, healthy and mature male and female medakas at 16 ± 2 weeks old were selected from a single‐stock population, which were bred within the test facilities. The test fish were maintained in conditions similar to the assay for at least 7 days, and spawning status was checked during the acclimation period. On the day the chemical exposure commenced, to ensure balanced distribution of test fish between the treatment groups for the reproductive status of the fish, the replicate vessels (fish tanks), with each containing three male and female medaka, were distributed to each treatment and control group, for example, by a randomized block design based on the number of fertilized eggs laid in the last 5–7 days during the acclimation, in each assay.\nThe water solubility of the test chemical was also taken into consideration when deciding the highest test concentration. To set the lower concentrations, a spacing factor ranging between two and five was used. All assays included a dilution water control (DWC).\nTest solutions at the selected concentrations were prepared by diluting a stock solution, which was prepared by an adequate method depending on the physicochemical properties of the test chemicals, for example, by simply mixing the test chemical in dilution water by stirring and/or sonicating for an appropriate time or by using a solid–liquid saturator. In the two laboratories, flow‐through exposure systems, in which a series of test solutions at the target concentrations can be continuously prepared and delivered to test vessels at controlled flow rates (Haselman et al., [2016]; Watanabe et al., [2017]), were used for the exposure experiments.\nIn the FSTRA, three mature adult males and females in a test vessel were exposed together to the test chemicals in flow‐through condition for 3 weeks. In all the assays, each treatment group, including the DWC group, contained four replicate tanks. During the exposure period, the fish were fed a sufficient amount of live brine shrimp nauplii (newly hatched Artemia sp.) for daily spawning ad libitum. Fecal material in the tanks was appropriately removed by siphoning after feeding. Water temperature of test solutions was recorded for at least one vessel in each treatment and control group every day and for all vessels at least once a week. Furthermore, dissolved oxygen and pH of test solutions were measured for all test vessels at least once a week. Mortality and abnormal behavior and appearance in the fish exposed to test chemicals were daily observed, and any fish that died were removed from the tank as soon as possible. To assess the reproductive status, all eggs females spawned were collected every day. At the completion of the chemical exposure, surviving fish in each tank were sampled.\nThe eggs females released on the bottom of the tank were collected by siphoning, and the egg clutches still on female abdomen were carefully picked from the body of the females captured using a small net. All the eggs collected were microscopically observed and separately counted for fertilized and unfertilized."}, "medaka ARβ (mARβ)": {"target": "medaka ARβ (mARβ) (Oryzias latipes, UniProt D1MV73)", "sequence (D1MV73 entry or part of it)": "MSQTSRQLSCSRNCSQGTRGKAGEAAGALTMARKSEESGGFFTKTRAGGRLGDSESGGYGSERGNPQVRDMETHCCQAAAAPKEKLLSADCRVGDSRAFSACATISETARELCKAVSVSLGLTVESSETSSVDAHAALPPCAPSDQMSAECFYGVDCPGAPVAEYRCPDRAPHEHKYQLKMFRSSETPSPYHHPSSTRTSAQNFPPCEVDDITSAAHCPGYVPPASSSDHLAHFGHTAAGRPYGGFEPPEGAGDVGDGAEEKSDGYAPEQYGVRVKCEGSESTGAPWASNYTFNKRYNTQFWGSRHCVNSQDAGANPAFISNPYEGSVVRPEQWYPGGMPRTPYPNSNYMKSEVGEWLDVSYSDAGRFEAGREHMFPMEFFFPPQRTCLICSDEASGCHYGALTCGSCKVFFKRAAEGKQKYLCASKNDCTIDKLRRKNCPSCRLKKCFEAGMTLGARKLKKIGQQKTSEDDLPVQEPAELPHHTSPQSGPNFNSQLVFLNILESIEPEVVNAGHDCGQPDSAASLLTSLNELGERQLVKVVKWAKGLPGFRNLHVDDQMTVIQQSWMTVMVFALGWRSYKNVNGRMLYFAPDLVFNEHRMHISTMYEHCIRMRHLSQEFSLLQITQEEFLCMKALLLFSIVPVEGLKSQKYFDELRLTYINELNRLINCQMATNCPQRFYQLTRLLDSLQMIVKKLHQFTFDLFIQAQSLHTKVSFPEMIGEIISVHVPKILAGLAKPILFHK", "assay": "Medaka ARβ reporter gene assay (RGA), agonist assay, HepG2 cells", "format": "cell-based, Japanese medaka (Oryzias latipes)", "details": "mARβ RGA agonist assay; ND = no significant response even at the highest assay concentration (in parentheses)", "description": "To support interpretation of the biological effects observed in the FSTRA studies, in vitro RGAs using medaka Esr1 (mEsr1) and medaka ARβ (mARβ) were performed for the 16 test chemicals.\nFor the assays, human liver cancer cell line, HepG2, was used as the host cells, and mARβ/pcDNA3.1, MMTV‐Luc, and pRL‐TK‐Rlu were used as mARβ expression vector, reporter vector, and internal control vector, respectively.\nas §1"}},
  "note": "“Also recorded” adds a separate entry of the source. Like-named read-outs stand apart in the source and are kept apart here.",
  "data": [
    {"smiles": "CCCN(CCOc1c(Cl)cc(Cl)cc1Cl)C(=O)n1ccnc1", "note": "[PCL, Prochloraz]", "values": [
      {"measurement": "IC50", "setting": "medaka Esr1 (mEsr1)", "result": "> 10", "unit": "µM"},
      {"measurement": "effect on fertility rate, in words", "setting": "[1]; 21-day exposure", "result": "significant decrease; also recorded: significant reduction"},
      {"measurement": "GSI Female", "setting": "[1]; measured conc. 20.6 μg/L", "result": 10.2, "unit": "%"},
      {"measurement": "HSI Female", "setting": "[1]; measured conc. 20.6 μg/L", "result": 4.2, "unit": "%"},
      {"measurement": "Length Female", "setting": "[1]; measured conc. 20.6 μg/L", "result": 35.0, "unit": "mm"},
      {"measurement": "Weight Female", "setting": "[1]; measured conc. 20.6 μg/L", "result": 547, "unit": "mg"},
      {"measurement": "GSI Female", "setting": "[1]; measured conc. 44.9 μg/L", "result": 11.1, "unit": "%"},
      {"measurement": "HSI Female", "setting": "[1]; measured conc. 44.9 μg/L", "result": 4.5, "unit": "%"},
      {"measurement": "Length Female", "setting": "[1]; measured conc. 44.9 μg/L", "result": 36.5, "unit": "mm"},
      {"measurement": "Weight Female", "setting": "[1]; measured conc. 44.9 μg/L", "result": 591, "unit": "mg"},
      {"measurement": "LOEC for decrease of VTG in females", "setting": "[1]; hepatic VTG, 21-day exposure, measured conc.", "result": 44.9, "unit": "µg/L"},
      {"measurement": "GSI Male", "setting": "[1]; measured conc. 20.6 μg/L", "result": 1.26, "unit": "%"},
      {"measurement": "HSI Male", "setting": "[1]; measured conc. 20.6 μg/L", "result": 1.7, "unit": "%"},
      {"measurement": "Length Male", "setting": "[1]; measured conc. 20.6 μg/L", "result": 34.4, "unit": "mm"},
      {"measurement": "Weight Male", "setting": "[1]; measured conc. 20.6 μg/L", "result": 408, "unit": "mg"},
      {"measurement": "GSI Male", "setting": "[1]; measured conc. 44.9 μg/L", "result": 1.16, "unit": "%"},
      {"measurement": "HSI Male", "setting": "[1]; measured conc. 44.9 μg/L", "result": 1.7, "unit": "%"},
      {"measurement": "Length Male", "setting": "[1]; measured conc. 44.9 μg/L", "result": 34.3, "unit": "mm"},
      {"measurement": "Weight Male", "setting": "[1]; measured conc. 44.9 μg/L", "result": 415, "unit": "mg"},
      {"measurement": "Fertility rate (%)", "setting": "[1]; measured conc. 20.6 μg/L", "result": 94, "unit": "%"},
      {"measurement": "Mortality (%) Female", "setting": "[1]; measured conc. 20.6 μg/L", "result": 0, "unit": "%"},
      {"measurement": "Mortality (%) Male", "setting": "[1]; measured conc. 20.6 μg/L", "result": 0, "unit": "%"},
      {"measurement": "Number of fertilized eggs", "setting": "[1]; measured conc. 20.6 μg/L", "result": 37},
      {"measurement": "Number of total eggs", "setting": "[1]; measured conc. 20.6 μg/L", "result": "39 ± 4.5 /female/day"},
      {"measurement": "SSC Female", "setting": "[1]; measured conc. 20.6 μg/L", "result": "0 ± 0"},
      {"measurement": "SSC Male", "setting": "[1]; measured conc. 20.6 μg/L", "result": "103 ± 15"},
      {"measurement": "VTG (ng/mg of liver) Female", "setting": "[1]; measured conc. 20.6 μg/L", "result": "289 ± 57 ng/mg of liver"},
      {"measurement": "VTG (ng/mg of liver) Male", "setting": "[1]; measured conc. 20.6 μg/L", "result": "2.6 ± 2.0 ng/mg of liver"},
      {"measurement": "Fertility rate (%)", "setting": "[1]; measured conc. 44.9 μg/L", "result": 84, "unit": "%"},
      {"measurement": "Mortality (%) Female", "setting": "[1]; measured conc. 44.9 μg/L", "result": 0, "unit": "%"},
      {"measurement": "Mortality (%) Male", "setting": "[1]; measured conc. 44.9 μg/L", "result": 0, "unit": "%"},
      {"measurement": "Number of fertilized eggs", "setting": "[1]; measured conc. 44.9 μg/L", "result": 28},
      {"measurement": "Number of total eggs", "setting": "[1]; measured conc. 44.9 μg/L", "result": "34 ± 5.5 /female/day"},
      {"measurement": "SSC Female", "setting": "[1]; measured conc. 44.9 μg/L", "result": "0 ± 0"},
      {"measurement": "SSC Male", "setting": "[1]; measured conc. 44.9 μg/L", "result": "93 ± 13"},
      {"measurement": "VTG (ng/mg of liver) Female", "setting": "[1]; measured conc. 44.9 μg/L", "result": "173 ± 53 ng/mg of liver"},
      {"measurement": "VTG (ng/mg of liver) Male", "setting": "[1]; measured conc. 44.9 μg/L", "result": "1.2 ± 1.2 ng/mg of liver"},
      {"measurement": "effect on fecundity (number of total eggs), in words", "setting": "[1]; within the test concentrations, 21-day exposure", "result": "No effect"}
    ]},
    {"smiles": "C[C@]12CC(=O)[C@H]3[C@@H](CCC4=CC(=O)CC[C@@]43C)[C@@H]1CC[C@@H]2O", "note": "[11KT, 11‐ketotestosterone]", "values": [
      {"measurement": "EC50", "setting": "medaka ARβ (mARβ)", "result": 0.0027, "unit": "µM"},
      {"measurement": "IC50", "setting": "medaka Esr1 (mEsr1); mEsr1 RGA antagonist assay, 1 nM E2-mediated transactivation, ND = no significant response even at the highest assay concentration (in parentheses), read-out: Antagonist assay, IC50, Medaka Esr1", "result": "> 100", "unit": "µM"}
    ]}
  ]
}
